The source of these data is patent US9107415B2, “2-(substituted-phenyl)-cyclopentane-1,3-dione compounds, and derivatives thereof” (Syngenta Limited, priority 2011, dated 2015).

Where two headings read alike, the source gives them in different places.

Common to all, as to type: in vivo
Test [1] deals with Alopecurus myosuroides (ALOMY). The test is described as follows: Biological Example 1 glasshouse screen, pre-emergence herbicidal activity. The note with it: 312 h, read-out: ALOMY percentage phytotoxicity. On the procedure:
(§1) Seeds of a variety of test species were sown in standard soil in pots. After cultivation for one day (pre-emergence) or after 8 days cultivation (post-emergence) under controlled conditions in a glasshouse (at 24/16°C., day/night; 14 hours light; 65% humidity), the plants were sprayed with an aqueous spray solution derived from the formulation of the “technical”(i.e. unformulated) active ingredient in acetone/water (50:50) solution containing 0.5% Tween 20 (polyoxyethylene sorbitan monolaurate, CAS Registry Number 9005-64-5). The test plants were then grown in a glasshouse under controlled conditions in a glasshouse (at 24/16°C., day/night; 14 hours light; 65% humidity) and watered twice daily. After 13 days for pre- or post-emergence, the test was evaluated visually, and an assessed percentage phytotoxicity score given for each herbicidal application on each plant/weed species (with 100%=total damage to plant; 0%=no damage to plant).
(§2) Test plants: Alopecurus myosuroides (ALOMY), Setaria faberi (SETFA), Echinochloa crus-galli (ECHCG), Solanum nigrum (SOLNI), Amaranthus retroflexus (AMARE) and Ipomoea hederacea (IPOHE). ALOMY, SETFA and ECHCG are grassy monocotyledonous weeds. SOLNI, AMARE and IPOHE are dicotyledonous (broadleaved) weeds.
(§3) Test plants: Lolium perenne (LOLPE), Alopecurus myosuroides (ALOMY), Echinochloa crus-galli (ECHCG), and Avena fatua (AVEFA). All four of these are grassy monocotyledonous weeds.

Test [2] relates to Echinochloa crus-galli (ECHCG). The description is as above. The note with it: 312 h, read-out: ECHCG percentage phytotoxicity. On the procedure:
as §1, §2, §3

The test system of test [3] is Avena fatua (AVEFA). The test is described as above. The note with it: 312 h, read-out: AVEFA percentage phytotoxicity. The protocol:
as §1, §3

Test [4] relates to Lolium perenne (LOLPE). The test is described as above. Conditions: 312 h, read-out: LOLPE percentage phytotoxicity. The protocol: as §1, §3
Test [5] has as its system Alopecurus myosuroides (ALOMY). Kind of test: Biological Example 1 glasshouse screen, post-emergence herbicidal activity. Conditions: 312 h, read-out: ALOMY percentage phytotoxicity. The protocol:
as §1, §2, §3

Test [6] relates to Echinochloa crus-galli (ECHCG). Described as above. Conditions: 312 h, read-out: ECHCG percentage phytotoxicity. The protocol:
as §1, §2, §3

Test [7] relates to Avena fatua (AVEFA). Described as above. The note with it: 312 h, read-out: AVEFA percentage phytotoxicity. On the procedure:
as §1, §3

The subject of test [8] is Lolium perenne (LOLPE). The test is described as above. Conditions: 312 h, read-out: LOLPE percentage phytotoxicity. The protocol:
as §1, §3

For test [9], the system named is Alopecurus myosuroides (ALOMY). The test is described as follows: Biological Example 2 post-emergence herbicidal activity (comparative data). The note with it: 312 h, read-out: ALOMY percentage phytotoxicity. On the procedure: as §1
(§4) Comparative herbicidal data are given for certain exemplified compounds with 4-(prop-1-ynyl)-2,6-dimethylphenyl or 4-(chloroethynyl)-2,6-dimethylphenyl headgroups, compared to the corresponding comparative compounds with 4-ethynyl-2,6-dimethylphenyl headgroups, as follows.
(§5) Except where specified otherwise, the glasshouse screen for herbicidal activity is substantially the same as that presented in Biological Example 1 hereinabove. The weed abbreviations are as defined in Biological Example 1.

In test [10] the test system is Avena fatua (AVEFA). Described as above. The protocol:
as §1, §4, §5

The subject of test [11] is Echinochloa crus-galli (ECHCG). The test is described as above. Conditions: 312 h, read-out: ECHCG percentage phytotoxicity. On the procedure: as §1, §4, §5
In test [12] the test system is Lolium perenne (LOLPE). Described as above. The protocol:
as §1, §4, §5

For test [13], the system named is Triticum aestivum, wheat (TRZAW). The test is described as follows: Biological Example 3 glasshouse screen, post-emergence, phytotoxicity on wheat. Conditions: 360 h, read-out: TRZAW percentage phytotoxicity. The protocol:
(§6) Test Method: Seeds of a variety of test species are sown in standard soil in pots. After cultivation for one day (pre-emergence) or after 12 days cultivation (post-emergence) under controlled conditions in a glasshouse (warm climate species at 24/18°C., cool climate species at 20/16°C., both at day/night; 16 hours light; 65% humidity), the plants are sprayed with an aqueous spray solution derived from the formulation of the “technical”(i.e. unformulated) active ingredient dissolved in acetone plus IF50, at a 1:20 ratio of “technical”active ingredient to IF50. The IF50 contains about 10.56 weight % Emulsogen EL™(castor oil ethoxylate, CAS Registry number 61791-12-6), about 42.22 weight % N-methylpyrrolidone, and about 42.22 weight % DPG-Monoethyl ether (dipropylene glycol mono-ethyl ether). The adjuvant X-77 (a mixture of alkyl aryl polyoxyethylene glycols and free fatty acids in isopropanol, CAS Registry number 11097-66-8) is added to the aqueous spray solution to form a 0.2% v/v solution, before spraying onto the plants.
The test plants are then grown in a glasshouse under controlled conditions in a glasshouse (at 24/18°C. or 20/16°C., day/night; 16 hours light; 65% humidity) and watered twice daily. After 15 days after application of the herbicide (15 DAA) (for post-emergence), and after 20 DAA (for pre-emergence), the test is evaluated visually, and an assessed percentage phytotoxicity score is given for each herbicidal application on each plant/weed species (with 100%=total damage to plant; 0%=no damage to plant).
These give an approximate indication of the level of selectivity on wheat for these tested compounds, when a herbicide safener such as cloquintocet-mexyl is not used: […]

Test [14] deals with Alopecurus myosuroides, blackgrass (ALOMY). The test is described as follows: Biological Example 3 glasshouse screen, post-emergence herbicidal activity. Conditions: 360 h, read-out: ALOMY percentage phytotoxicity. On the procedure: as §6
(§7) The test plants are then grown in a glasshouse under controlled conditions in a glasshouse (at 24/18°C. or 20/16°C., day/night; 16 hours light; 65% humidity) and watered twice daily. After 15 days after application of the herbicide (15 DAA) (for post-emergence), and after 20 DAA (for pre-emergence), the test is evaluated visually, and an assessed percentage phytotoxicity score is given for each herbicidal application on each plant/weed species (with 100%=total damage to plant; 0%=no damage to plant). […]

Test [15] relates to Avena fatua, wild oats (AVEFA). The test is described as above. The note with it: 360 h, read-out: AVEFA percentage phytotoxicity. The protocol:
as §6, §7

The test system of test [16] is Echinochloa crus galli, barnyardgrass (ECHCG). Described as above. Conditions: 360 h, read-out: ECHCG percentage phytotoxicity. The protocol:
as §6, §7

Test [17] has as its system Lolium perenne, perennial ryegrass (LOLPE). The description is as above. The note with it: 360 h, read-out: LOLPE percentage phytotoxicity. On the procedure:
as §6, §7

The mark [18] stands for this setting: application rate 250 g/ha, evaluated after 13 days.
Setting [19] is: application rate 30 g/ha, 15 DAA, no safener.

In the case of `CC#Cc1cc(C)c(C2=C(O)CC(Cc3ccccn3)C2=O)c(C)c1` (racemic) [Compound A-2, rac-2-(2,6-Dimethyl-4-prop-1-ynylphenyl)-4-(pyridin-2-ylmethyl)cyclopentane-1,3-dione], the pest or weed control at 250 g/ha in [1] was determined as 100%; in [2] it was 100%; with Avena fatua (AVEFA) [3] it was 70%; in the test with Lolium perenne (LOLPE) [4], 100%; in test [5], 100%; in test [6], 100%. Moreover, the pest or weed control at 250 g/ha with Avena fatua (AVEFA) [7] and in the test on Lolium perenne (LOLPE) [8] was 100% each time. The pest or weed control at 15.625 g/ha in test [9] came to 90%; in [11], 100%. For the same molecule, the pest or weed control at 62.5 g/ha in [9] and in [11] was 100% throughout. Moreover, the AVEFA percentage phytotoxicity is 80% in the test with Avena fatua (AVEFA) [10] (15.625 g/ha application rate) and 90% in the test with Avena fatua (AVEFA) [10] (62.5 g/ha application rate). For the same molecule, the LOLPE percentage phytotoxicity in the test on Lolium perenne (LOLPE) [12] (15.625 g/ha application rate) and with Lolium perenne (LOLPE) [12] (62.5 g/ha application rate) was 100% each time. Further, in test [13], the plant injury at 30 g/ha was 30%. Further, the pest or weed control at 30 g/ha in [14] is 90%; in test [15], 70%; in test [16], 100%; in test [17], 90%.

As to `CC#Cc1cc(C)c(C2=C(O)CC(CC3CCOCC3)C2=O)c(C)c1` (centres unmarked) [Compound A-4, 2-(2,6-Dimethyl-4-prop-1-ynylphenyl)-4-(tetrahydropyran-4-ylmethyl)cyclopentane-1,3-dione], the pest or weed control at 250 g/ha came to 100% in test [1] (setting [18]); 100% in test [2] (setting [18]); 70% in the test on Avena fatua (AVEFA) [3] (setting [18]); 100% in the test with Lolium perenne (LOLPE) [4] (setting [18]); 90% in test [5] (setting [18]); 100% in test [6] (setting [18]). Besides, the pest or weed control at 250 g/ha in the test with Avena fatua (AVEFA) [7] (setting [18]) and with Lolium perenne (LOLPE) [8] (setting [18]) was 100% each time. For the same molecule, the values for the pest or weed control at 15.625 g/ha in test [9] (15.625 g/ha application rate) and in test [11] (15.625 g/ha application rate) were 70% and 100%, respectively. Moreover, the figures for the pest or weed control at 62.5 g/ha in test [9] (62.5 g/ha application rate) and in test [11] (62.5 g/ha application rate) were 90% and 100%, respectively. Besides, the AVEFA percentage phytotoxicity in the test with Avena fatua (AVEFA) [10] (15.625 g/ha application rate) and in the test with Avena fatua (AVEFA) [10] (62.5 g/ha application rate) was 100% each time. Also, the LOLPE percentage phytotoxicity in the test with Lolium perenne (LOLPE) [12] (15.625 g/ha application rate) and with Lolium perenne (LOLPE) [12] (62.5 g/ha application rate) was 100% each time. The pest or weed control at 30 g/ha in test [13] (setting [19]) is 80%; in test [14] (setting [19]), 100%; in test [15] (setting [19]), 80%; in [16] (setting [19]), 100%; in test [17] (setting [19]) it was 100%.

For the molecule `C#Cc1cc(C)c(C2=C(O)CC(CC3CCOCC3)C2=O)c(C)c1` (centres unmarked) [X-2, reference compound], the figures for the pest or weed control at 15.625 g/ha in [9] (15.625 g/ha application rate) and in test [11] (15.625 g/ha application rate) were 60% and 70%, respectively. For the same molecule, the pest or weed control at 62.5 g/ha in test [9] (62.5 g/ha application rate) and in [11] (62.5 g/ha application rate) was 90% in each case. For the same molecule, the AVEFA percentage phytotoxicity with Avena fatua (AVEFA) [10] (15.625 g/ha application rate) and with Avena fatua (AVEFA) [10] (62.5 g/ha application rate) was 90% in each case. For the same molecule, the values for the LOLPE percentage phytotoxicity with Lolium perenne (LOLPE) [12] (15.625 g/ha application rate) and in the test with Lolium perenne (LOLPE) [12] (62.5 g/ha application rate) were 80% and 90%, respectively.
